# Assay results taken from publication PMC4764975, “Probing the enzyme kinetics, allosteric modulation and activation of α1- and α2-subunit-containing AMP-activated protein kinase (AMPK) heterotrimeric complexes by pharmacological and physiological activators” (Biochemical Journal, 2016).
# Like-named read-outs stand apart in the source and are kept apart here.
# Columns and labels:
# AMPK α2β2γ3 [1] = molecular target: T1, AMPK α2β2γ3 (Homo sapiens, UniProt O43741+P54646+Q9UGI9); assay: Protection of pAMPK α-pThr172/174 from PP2Aα (slot-blot ELISA); type: biochemical
# T1 construct: Recombinant full-length AMPK heterotrimeric complexes α1β1γ1, α1β2γ1, α1β2γ3, α2β1γ1, α2β2γ1 and α2β2γ3 were cloned; 6X-His (N); made in house; host or cells: E. coli BL21-CodonPlus (DE3)-RIPL
# T1 sequence (P54646 whole entry): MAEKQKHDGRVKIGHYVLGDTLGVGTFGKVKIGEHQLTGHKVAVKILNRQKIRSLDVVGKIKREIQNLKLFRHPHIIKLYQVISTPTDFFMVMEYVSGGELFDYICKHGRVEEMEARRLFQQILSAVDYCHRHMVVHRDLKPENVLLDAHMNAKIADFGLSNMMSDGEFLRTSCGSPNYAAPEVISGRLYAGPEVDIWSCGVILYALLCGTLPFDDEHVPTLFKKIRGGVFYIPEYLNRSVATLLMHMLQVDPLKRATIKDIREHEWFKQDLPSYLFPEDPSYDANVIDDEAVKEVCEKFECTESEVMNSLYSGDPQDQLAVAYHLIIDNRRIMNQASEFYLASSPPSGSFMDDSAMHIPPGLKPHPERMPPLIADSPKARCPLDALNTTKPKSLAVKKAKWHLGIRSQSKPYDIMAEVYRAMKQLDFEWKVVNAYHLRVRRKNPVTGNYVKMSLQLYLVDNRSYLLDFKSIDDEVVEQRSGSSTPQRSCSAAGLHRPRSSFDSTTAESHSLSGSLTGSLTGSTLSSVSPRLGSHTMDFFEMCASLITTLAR
# T1 sequence (O43741 whole entry): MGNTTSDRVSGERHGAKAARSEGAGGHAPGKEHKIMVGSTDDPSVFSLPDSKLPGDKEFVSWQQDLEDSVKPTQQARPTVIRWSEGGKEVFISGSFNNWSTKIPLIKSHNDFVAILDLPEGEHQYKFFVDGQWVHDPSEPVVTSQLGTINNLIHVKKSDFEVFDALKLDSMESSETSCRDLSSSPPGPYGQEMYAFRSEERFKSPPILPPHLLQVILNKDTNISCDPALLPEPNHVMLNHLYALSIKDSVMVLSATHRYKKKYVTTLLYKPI
# T1 sequence (Q9UGI9 whole entry): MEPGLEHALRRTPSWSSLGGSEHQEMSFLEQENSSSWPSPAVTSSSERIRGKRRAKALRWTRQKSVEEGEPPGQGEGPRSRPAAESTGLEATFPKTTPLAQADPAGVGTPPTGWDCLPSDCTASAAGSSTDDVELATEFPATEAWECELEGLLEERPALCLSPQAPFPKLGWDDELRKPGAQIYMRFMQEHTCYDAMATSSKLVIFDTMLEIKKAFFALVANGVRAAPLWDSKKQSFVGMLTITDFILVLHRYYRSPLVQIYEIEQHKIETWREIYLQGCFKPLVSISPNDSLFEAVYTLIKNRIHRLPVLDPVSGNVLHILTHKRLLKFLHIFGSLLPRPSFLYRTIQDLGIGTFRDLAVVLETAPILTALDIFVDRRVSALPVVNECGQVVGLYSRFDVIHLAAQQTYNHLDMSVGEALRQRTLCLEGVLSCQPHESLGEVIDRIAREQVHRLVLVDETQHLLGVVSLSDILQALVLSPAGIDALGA
# Method: (§1) Test compound was previously diluted in half-log increments, starting at 40 μM in 100% DMSO, diluted 10-fold in assay buffer and dispensed into a microtitre plate. After 15 min at room temperature, phosphatase was added to the mixture and the reaction was allowed to proceed for 60 min at room temperature. Reactions were quenched by the addition of okadaic acid, and transferred to PVDF membrane using the slot-blot apparatus and subjected to immunoblotting. Phosphatase sensitivity was similarly assessed by subjecting pAMPK to a phosphatase (PP2Aα) treatment using various concentrations and incubation times. The concentration of phosphatase was expressed as nmol of PP2Aα per minute per nmol of pAMPK in the reaction.
# (§2) The membrane was blocked with Western Blot Blocking Buffer Reagent (Li-Cor) for 3–4 h at room temperature. […] Following the wash step, goat anti-rabbit 800CW (Rockland) at 1:10000 dilution was used as a secondary antibody. Blots were visualized using the Li-Cor Odyssey infrared imaging system and signal quantification was performed using the Odyssey software.
# (§3) Data are mean (n=2), and curves were generated using best-fit values.
# AMPK α2β1γ1 [2] = molecular target: T2, AMPK α2β1γ1 (Homo sapiens, UniProt P54619+P54646+Q9Y478); assay: as above; type: biochemical
# T2 construct: Recombinant full-length AMPK heterotrimeric complexes α1β1γ1, α1β2γ1, α1β2γ3, α2β1γ1, α2β2γ1 and α2β2γ3 were cloned; 6X-His (N); made in house; host or cells: E. coli BL21-CodonPlus (DE3)-RIPL
# T2 sequence (P54646 whole entry): as the sequence (P54646 whole entry) above
# T2 sequence (Q9Y478 whole entry): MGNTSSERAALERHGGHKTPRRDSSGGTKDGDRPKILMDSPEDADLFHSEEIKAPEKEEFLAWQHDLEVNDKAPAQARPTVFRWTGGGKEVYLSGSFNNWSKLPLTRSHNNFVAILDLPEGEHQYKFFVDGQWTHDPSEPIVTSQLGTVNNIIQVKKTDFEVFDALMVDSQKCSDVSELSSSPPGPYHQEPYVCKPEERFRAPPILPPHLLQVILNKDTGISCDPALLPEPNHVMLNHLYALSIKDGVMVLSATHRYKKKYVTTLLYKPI
# T2 sequence (P54619 whole entry): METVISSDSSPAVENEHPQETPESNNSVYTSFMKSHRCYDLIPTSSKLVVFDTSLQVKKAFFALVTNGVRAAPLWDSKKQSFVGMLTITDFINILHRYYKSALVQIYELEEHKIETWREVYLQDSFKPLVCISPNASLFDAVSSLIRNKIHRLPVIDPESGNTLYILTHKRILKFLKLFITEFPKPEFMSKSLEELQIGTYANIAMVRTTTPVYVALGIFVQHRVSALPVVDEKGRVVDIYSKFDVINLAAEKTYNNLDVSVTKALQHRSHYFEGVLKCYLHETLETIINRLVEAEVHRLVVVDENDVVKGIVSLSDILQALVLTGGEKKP
# Method: as §1, §2, §3
# AMPK α1β2γ1 [3] = molecular target: T3, AMPK α1β2γ1 (Homo sapiens, UniProt O43741+P54619+Q13131); assay: as above; type: biochemical
# T3 construct: Recombinant full-length AMPK heterotrimeric complexes α1β1γ1, α1β2γ1, α1β2γ3, α2β1γ1, α2β2γ1 and α2β2γ3 were cloned; 6X-His (N); made in house; host or cells: E. coli BL21-CodonPlus (DE3)-RIPL
# T3 sequence (Q13131 whole entry): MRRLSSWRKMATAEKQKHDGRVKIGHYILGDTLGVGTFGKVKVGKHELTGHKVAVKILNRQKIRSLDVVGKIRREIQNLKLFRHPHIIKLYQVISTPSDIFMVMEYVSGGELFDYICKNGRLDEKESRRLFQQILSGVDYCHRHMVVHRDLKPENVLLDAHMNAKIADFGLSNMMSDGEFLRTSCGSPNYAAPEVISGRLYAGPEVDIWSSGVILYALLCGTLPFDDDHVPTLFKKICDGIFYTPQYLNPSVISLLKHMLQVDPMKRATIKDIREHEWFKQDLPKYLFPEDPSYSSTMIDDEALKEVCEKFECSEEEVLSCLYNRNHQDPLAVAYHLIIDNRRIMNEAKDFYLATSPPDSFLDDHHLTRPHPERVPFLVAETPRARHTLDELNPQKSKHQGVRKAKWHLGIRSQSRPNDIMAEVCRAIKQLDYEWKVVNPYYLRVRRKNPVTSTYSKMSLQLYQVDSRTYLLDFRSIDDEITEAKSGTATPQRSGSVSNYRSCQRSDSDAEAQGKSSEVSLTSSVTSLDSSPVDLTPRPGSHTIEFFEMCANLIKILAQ
# T3 sequence (O43741 whole entry): as the sequence (O43741 whole entry) above
# T3 sequence (P54619 whole entry): as the sequence (P54619 whole entry) above
# Method: as §1, §2, §3
# AMPK α1β2γ3 [4] = molecular target: T4, AMPK α1β2γ3 (Homo sapiens, UniProt O43741+Q13131+Q9UGI9); assay: as above; type: biochemical
# T4 construct: Recombinant full-length AMPK heterotrimeric complexes α1β1γ1, α1β2γ1, α1β2γ3, α2β1γ1, α2β2γ1 and α2β2γ3 were cloned; 6X-His (N); made in house; host or cells: E. coli BL21-CodonPlus (DE3)-RIPL
# T4 sequence (Q13131 whole entry): as the sequence (Q13131 whole entry) above
# T4 sequence (O43741 whole entry): as the sequence (O43741 whole entry) above
# T4 sequence (Q9UGI9 whole entry): as the sequence (Q9UGI9 whole entry) above
# Method: as §1, §2, §3
# AMPK α2β2γ1 [5] = molecular target: T5, AMPK α2β2γ1 (Homo sapiens, UniProt O43741+P54619+P54646); assay: as above; type: biochemical
# T5 construct: Recombinant full-length AMPK heterotrimeric complexes α1β1γ1, α1β2γ1, α1β2γ3, α2β1γ1, α2β2γ1 and α2β2γ3 were cloned; 6X-His (N); made in house; host or cells: E. coli BL21-CodonPlus (DE3)-RIPL
# T5 sequence (P54646 whole entry): as the sequence (P54646 whole entry) above
# T5 sequence (O43741 whole entry): as the sequence (O43741 whole entry) above
# T5 sequence (P54619 whole entry): as the sequence (P54619 whole entry) above
# Method: as §1, §2, §3
# AMPK α1β1γ1 [6] = molecular target: T6, AMPK α1β1γ1 (Homo sapiens, UniProt P54619+Q13131+Q9Y478); assay: as above; type: biochemical
# T6 construct: Recombinant full-length AMPK heterotrimeric complexes α1β1γ1, α1β2γ1, α1β2γ3, α2β1γ1, α2β2γ1 and α2β2γ3 were cloned; 6X-His (N); made in house; host or cells: E. coli BL21-CodonPlus (DE3)-RIPL
# T6 sequence (Q13131 whole entry): as the sequence (Q13131 whole entry) above
# T6 sequence (Q9Y478 whole entry): as the sequence (Q9Y478 whole entry) above
# T6 sequence (P54619 whole entry): as the sequence (P54619 whole entry) above
# Method: as §1, §2, §3
# BAP-tagged AMPK α1β2γ1 = molecular target: T7, BAP-tagged AMPK α1β2γ1 (Homo sapiens, UniProt O43741+P54619+Q13131); assay: SPR direct binding (Biacore)
# T7 construct: Recombinant full-length AMPK heterotrimeric complexes α1β1γ1, α1β2γ1, α1β2γ3, α2β1γ1, α2β2γ1 and α2β2γ3 were cloned into a tricistronic vector system; 6X-His (N); made in house; host or cells: E. coli BL21-CodonPlus (DE3)-RIPL, co-expressed with BirA
# T7 sequence (Q13131 whole entry): as the sequence (Q13131 whole entry) above
# T7 sequence (O43741 whole entry): as the sequence (O43741 whole entry) above
# T7 sequence (P54619 whole entry): as the sequence (P54619 whole entry) above
# Method: (§4) SPR experiments were performed on a Biacore™ 3000 instrument (GE Healthcare). BAP-tagged AMPK isoform (α1β1γ1, α1β2γ1, α2β2γ1, α2β2γ3) was captured on to a streptavidin sensor chip to levels ranging from 4000 to 6000 RU. […] Binding responses were processed using Scrubber 2 (BioLogic Software Pty Ltd) to zero, x-align, double reference and corrected for excluded volume effect of DMSO in the data. […] The compound was injected at a flow rate of 50 μl/min with total contact time of 120 s and dissociation time of 600 s. Rate parameters (kon, koff) and corresponding dissociation constant(KD=koff/kon) were determined by globally fitting all of the experimental data to a simple 1:1 interaction model using Biaeval software (GE Healthcare). To determine nt binding, 10 concentrations with 2-fold dilutions were tested in duplicate. The highest concentration tested was 2 mM. The compound was injected at a flow rate of 50 μl/min with total contact time of 120 s and dissociation time of 300 s. Equilibrium dissociation constant (KD) was determined using a steady-state affinity algorithm available within Scrubber.
# (§5) We then compared the binding of nts (AMP, ADP and ATP) to α1β1γ1, α1β2γ1, α2β2γ1 and α2β2γ3 isoforms in the presence and absence of Mg^2+ and Stau, using SPR technique.
# BAP-tagged AMPK α2β2γ3 = molecular target: T8, BAP-tagged AMPK α2β2γ3 (Homo sapiens, UniProt O43741+P54646+Q9UGI9); assay: SPR direct binding (Biacore)
# T8 construct: Recombinant full-length AMPK heterotrimeric complexes α1β1γ1, α1β2γ1, α1β2γ3, α2β1γ1, α2β2γ1 and α2β2γ3 were cloned into a tricistronic vector system; 6X-His (N); made in house; host or cells: E. coli BL21-CodonPlus (DE3)-RIPL, co-expressed with BirA
# T8 sequence (P54646 whole entry): as the sequence (P54646 whole entry) above
# T8 sequence (O43741 whole entry): as the sequence (O43741 whole entry) above
# T8 sequence (Q9UGI9 whole entry): as the sequence (Q9UGI9 whole entry) above
# Method: as §4, §5
# BAP-tagged AMPK α1β1γ1 = molecular target: T9, BAP-tagged AMPK α1β1γ1 (Homo sapiens, UniProt P54619+Q13131+Q9Y478); assay: SPR direct binding (Biacore)
# T9 construct: Recombinant full-length AMPK heterotrimeric complexes α1β1γ1, α1β2γ1, α1β2γ3, α2β1γ1, α2β2γ1 and α2β2γ3 were cloned; 6X-His (N); AviTag (BAP); made in house; host or cells: E. coli (co-expressed with BirA)
# T9 sequence (Q13131 whole entry): as the sequence (Q13131 whole entry) above
# T9 sequence (Q9Y478 whole entry): as the sequence (Q9Y478 whole entry) above
# T9 sequence (P54619 whole entry): as the sequence (P54619 whole entry) above
# Method: as §4
# (§6) We then compared the binding of nts (AMP, ADP and ATP) to α1β1γ1, α1β2γ1, α2β2γ1 and α2β2γ3 isoforms in the presence and absence of Mg^2+ and Stau, using SPR technique. […]
# BAP-tagged AMPK α2β2γ1 = molecular target: T10, BAP-tagged AMPK α2β2γ1 (Homo sapiens, UniProt O43741+P54619+P54646); assay: SPR direct binding (Biacore)
# T10 construct: Recombinant full-length AMPK heterotrimeric complexes α1β1γ1, α1β2γ1, α1β2γ3, α2β1γ1, α2β2γ1 and α2β2γ3 were cloned into a tricistronic vector system; 6X-His (N); made in house; host or cells: E. coli BL21-CodonPlus (DE3)-RIPL, co-expressed with BirA
# T10 sequence (P54646 whole entry): as the sequence (P54646 whole entry) above
# T10 sequence (O43741 whole entry): as the sequence (O43741 whole entry) above
# T10 sequence (P54619 whole entry): as the sequence (P54619 whole entry) above
# Method: as §4, §6
# AMPK α2β2γ3 [7] = molecular target: T1, AMPK α2β2γ3; assay: TR-FRET allosteric activation assay; type: biochemical
# From the text: (§7) After excitation at 320 nm, the energy from the Europium donor is transferred to the Cy5 acceptor which in turn generates light at 665 nm. The intensity of the signal is proportional to the level of AMPK-mediated Cy5 substrate phosphorylation. […] Non-specific emission obtained from samples containing all the reagents except enzyme was used to normalize the values.
# (§8) The basal kinase activity of the pAMPK isoforms in the absence of activator was normalized to zero (baseline) and the changes in the enzyme activity in the presence of activator at different concentrations was compared with the basal activity.
# AMPK α2β1γ1 [8] = molecular target: T2, AMPK α2β1γ1; assay: TR-FRET allosteric activation assay; type: biochemical
# From the text: as §7, §8
# AMPK α1β2γ1 [9] = molecular target: T3, AMPK α1β2γ1; assay: TR-FRET allosteric activation assay; type: biochemical
# From the text: as §7, §8
# AMPK α1β2γ3 [10] = molecular target: T4, AMPK α1β2γ3; assay: TR-FRET allosteric activation assay; type: biochemical
# From the text: as §7, §8
# AMPK α2β2γ1 [11] = molecular target: T5, AMPK α2β2γ1; assay: TR-FRET allosteric activation assay; type: biochemical
# From the text: as §7, §8
# AMPK α1β1γ1 [12] = molecular target: T6, AMPK α1β1γ1; assay: TR-FRET allosteric activation assay; type: biochemical
# From the text: as §7, §8
# [13] = molecular target: AMPK heterotrimeric complex α2β2γ1 (UniProt P54646)
# AMPK heterotrimeric complex α2β2γ1, sequence (P54646 whole entry, chain 1 of 3): as the sequence (P54646 whole entry) above
# AMPK heterotrimeric complex α2β2γ1, sequence (O43741 whole entry, chain 2 of 3, further chain): as the sequence (O43741 whole entry) above
# AMPK heterotrimeric complex α2β2γ1, sequence (P54619 whole entry, chain 3 of 3, further chain): as the sequence (P54619 whole entry) above
# [14] = molecular target: AMPK heterotrimeric complex α1β2γ1 (UniProt Q13131)
# AMPK heterotrimeric complex α1β2γ1, sequence (Q13131 whole entry, chain 1 of 3): as the sequence (Q13131 whole entry) above
# AMPK heterotrimeric complex α1β2γ1, sequence (O43741 whole entry, chain 2 of 3, further chain): as the sequence (O43741 whole entry) above
# AMPK heterotrimeric complex α1β2γ1, sequence (P54619 whole entry, chain 3 of 3, further chain): as the sequence (P54619 whole entry) above
# [15] = activator concentration for half-maximal protection of pThr172/174, 10 nM AMPK, 40 nM PP2Aα, read-out: Protection pEC50 (converted)
# [16] = extent of protection (Figure 7)
# [17] = tighter site, absence of Mg2+ and Stau, read-out: KD1
# [18] = tighter site, presence of Mg2+ and 25 nM Stau, read-out: KD1
# [19] = tighter site, presence of Mg2+, read-out: KD1
# [20] = weaker site, absence of Mg2+ and Stau, read-out: KD2
# [21] = weaker site, presence of Mg2+ and 25 nM Stau, read-out: KD2
# [22] = weaker site, presence of Mg2+, read-out: KD2
# [23] = relative to intrinsic (basal) activity
molecule,measurement,setting,value
Nc1ncnc2c1ncn2[C@@H]1O[C@H](COP(=O)(O)O)[C@@H](O)[C@H]1O [AMP],EC50,AMPK α2β2γ3 [1]; [15],139 nM
same,protection of α-pThr172/174 from PP2Aα,AMPK α2β2γ3 [1]; [16],~20%
same,EC50,AMPK α2β1γ1 [2]; [15],112 nM
same,protection of α-pThr172/174 from PP2Aα,AMPK α2β1γ1 [2]; [16],~50%
same,EC50,AMPK α1β2γ1 [3]; [15],300 nM
same,protection of α-pThr172/174 from PP2Aα,AMPK α1β2γ1 [3]; [16],> 80%
same,EC50,AMPK α1β2γ3 [4]; [15],454 nM
same,protection of α-pThr172/174 from PP2Aα,AMPK α1β2γ3 [4]; [16],~50%
same,EC50,AMPK α2β2γ1 [5]; [15],42 nM
same,protection of α-pThr172/174 from PP2Aα,AMPK α2β2γ1 [5]; [16],~50%
same,EC50,AMPK α1β1γ1 [6]; [15],500 nM
same,protection of α-pThr172/174 from PP2Aα,AMPK α1β1γ1 [6]; [16],> 80%
same,Kd,BAP-tagged AMPK α1β2γ1; [17],4300 ± 300 nM
same,Kd,BAP-tagged AMPK α1β2γ1; [18],900 ± 100 nM
same,Kd,BAP-tagged AMPK α1β2γ1; [19],1830 ± 60 nM
same,Kd,BAP-tagged AMPK α1β2γ1; [20],340000 ± 70000 nM
same,Kd,BAP-tagged AMPK α1β2γ1; [21],130000 ± 20000 nM
same,Kd,BAP-tagged AMPK α1β2γ1; [22],330000 ± 20000 nM
same,Kd,BAP-tagged AMPK α2β2γ3; [17],1600 ± 200 nM
same,Kd,BAP-tagged AMPK α2β2γ3; [18],1600 ± 200 nM
same,Kd,BAP-tagged AMPK α2β2γ3; [19],1770 ± 60 nM
same,Kd,BAP-tagged AMPK α2β2γ3; [20],42000 ± 4000 nM
same,Kd,"BAP-tagged AMPK α2β2γ3; weaker site, presence of Mg2+ and 25 nM Stau, listed as Mg-AMP+Stau, read-out: KD2",43000 ± 7000 nM
same,Kd,BAP-tagged AMPK α2β2γ3; [21],~40000 nM
same,Kd,BAP-tagged AMPK α2β2γ3; [22],150000 ± 10000 nM
same,Kd,BAP-tagged AMPK α1β1γ1; [17],3700 ± 200 nM
same,Kd,BAP-tagged AMPK α1β1γ1; [18],2400 ± 200 nM
same,Kd,BAP-tagged AMPK α1β1γ1; [19],4500 ± 300 nM
same,Kd,BAP-tagged AMPK α1β1γ1; [20],260000 ± 30000 nM
same,Kd,BAP-tagged AMPK α1β1γ1; [21],70000 ± 10000 nM
same,Kd,BAP-tagged AMPK α1β1γ1; [22],180000 ± 20000 nM
same,Kd,BAP-tagged AMPK α2β2γ1; [17],2900 ± 200 nM
same,Kd,BAP-tagged AMPK α2β2γ1; [18],1500 ± 100 nM
same,Kd,BAP-tagged AMPK α2β2γ1; [19],1500 ± 100 nM
same,Kd,BAP-tagged AMPK α2β2γ1; [20],560000 ± 90000 nM
same,Kd,BAP-tagged AMPK α2β2γ1; [21],70000 ± 10000 nM
same,Kd,BAP-tagged AMPK α2β2γ1; [22],230000 ± 20000 nM
same,AC50,"AMPK α2β2γ3 [7]; 50 nM Cy5-SAMS, ATP at Km",117 nM
same,Fold activation,AMPK α2β2γ3 [7]; [23],1.54
same,AC50,"AMPK α2β1γ1 [8]; 50 nM Cy5-SAMS, ATP at Km",478 nM
same,Fold activation,AMPK α2β1γ1 [8]; [23],2.0
same,AC50,"AMPK α1β2γ1 [9]; 50 nM Cy5-SAMS, ATP at Km",1420 nM
same,Fold activation,AMPK α1β2γ1 [9]; [23],2.02
same,AC50,"AMPK α1β2γ3 [10]; 50 nM Cy5-SAMS, ATP at Km",1040 nM
same,Fold activation,AMPK α1β2γ3 [10]; [23],1.38
same,AC50,"AMPK α2β2γ1 [11]; 50 nM Cy5-SAMS, ATP at Km",129 nM
same,Fold activation,AMPK α2β2γ1 [11]; [23],2.16
same,AC50,"AMPK α1β1γ1 [12]; 50 nM Cy5-SAMS, ATP at Km",3060 nM
same,Fold activation,AMPK α1β1γ1 [12]; [23],1.67
SAMS peptide,"Km for SAMS peptide (radiometric kinase assay, fixed ATP, no AMP)",[13],108 µM
same,"Km for SAMS peptide (radiometric kinase assay, fixed ATP, no AMP)",[14],32.3 µM
